In US11518760B2 (Liverpool School of Tropical Medicine, priority 2017, dated 2022):

Tests used:
[1] = system: Wolbachia in adult male Onchocerca ochengi; experiment: Adult Onchocerca ochengi mouse model, Wolbachia wsp qPCR; assay type: in vivo; conditions: CB.17(BALB/c) SCID mice implanted with male O. ochengi, oral
Source text: Viable male Onchocerca ochengi were aseptically isolated from naturally parasitized cattle. Between 10-11 male Onchocerca were surgically implanted into the peritoneal cavity of CB.17(BALB/c) SCID mice under anaesthesia. […] 38 Days after O. ochengi surgical implantation, mice were necropsied to recover the live worms. Genomic DNA was extracted from individual adult worms (10/group) and quantification of the O. ochengi-specific Wolbachia surface protein (wsp) performed by quantitative PCR. Data in Table 6 is expressed as a reduction in Wolbachia load in comparison to the vehicle control group.

[2] = system: Wolbachia of the target parasite, Brugia malayi; experiment: In vitro microfilariae (Mf) Brugia malayi screen, wsp/gst qPCR; assay type: cell-based; conditions: B. malayi Mf, 6 days
Procedure: An in vitro microfilariae (Mf) assay was used to screen against Wolbachia of the target parasite, Brugia malayi. The Mf were obtained by peritoneal lavage of gerbils (Meriones unguiculatus) harbouring a patent infection of Brugia malayi as described previously (Griffiths et al., 2010, Lab Animal).
Mf were purified using a PD-10 desalting column (Fisher) followed by centrifugation (1200 rpm for 5 minutes at room temperature) then re-suspended in filter-sterilised culture medium consisting of RPMI supplemented with heat-inactivated Foetal Calf Serum (HI-FCS), 1% Penicillin-Streptomycin and 1% Amphotericin B.
After determining the concentration of Mf, the stock solution was diluted in culture medium to ensure a final concentration of 8000 Mf/well of a 96 well plate (100 μl per well). Compounds to be tested (10 mM stock in 100% DMSO) were diluted to appropriate working concentrations in culture medium and 100 μl was added to the appropriate wells of the 96 well plate containing the Mf. Five replicates were used for each compound and each plate contained doxycycline (5 μM) and vehicle (DMSO) controls. The plates were incubated at 37° C., 5% CO2, for 6 days.
On day 6, a visual assessment of motility was performed and wells scored from 0 to 4 (where 0=no movement and 4=highly motile) in order to assess whether there were any direct effects against the Mf. To perform the anti-Wolbachia readout, DNA was extracted from each individual well using the QIAmp DNA Mini Kit (Qiagen) ‘DNA Purification from Tissues’ protocol.
The number of Wolbachia present in Mf was assessed by quantification of the Wolbachia surface protein (wsp) gene copy number and normalised to the nematode glutathione S-transferase (gst) gene by qPCR based on methods described by McGarry et al., 2004, Mol Biochem Parasitol. DNA samples were amplified in duplicate in the following 20 μl reactions containing 1× QuantiTect SYBR Green PCR master mix (Qiagen): for wsp, 0.3 μM each of forward ([…]) and reverse ([…]) primer, 3 mM MgCl2 and 2 μl of DNA. For gst, 0.35 μM of forward ([…]) and reverse primer (ATCACGGACGCCTTCACAG), 3.5 mM MgCl2 and 1 μl of DNA. qPCR was performed using the Bio-Rad CFX384 C1000 thermal cycler (Bio-Rad laboratories LTD) with a denaturation step of 95° C. for 15 min then 40 cycles at 95° C. for 15 s, 57° C. (gst) or 60° C. (wsp) for 30 s, and 72° C. for 30 s. Quantification was determined by Bio-Rad CFX manager software by comparing the DNA samples to that of a standard curve generated from serial dilution of plasmid DNA of the appropriate gene. Data in Table 3 are expressed as a reduction in Wolbachia load in comparison to the vehicle control group and normalized by positive control (doxycycline at 5 μM).

[3] = system: Wolbachia in Brugia malayi larvae; experiment: Larval Brugia malayi mouse model, Wolbachia wsp qPCR; assay type: in vivo; conditions: BALB/c IL4Rα−/− mice, oral, 25 MK bid + 14 d; larvae recovered 14 days post-infection
Source text: In a larval Brugia malayi mouse model treatment groups (BALB/c IL4Rα−/− mice, 6-8 week old) received compounds by oral delivery for 7 to 14 days commencing on the day of intraperitoneal infection with Brugia malayi third-stage larvae. At 14 days post-infection, larvae were recovered from the peritoneal cavity, counted, and length measured. Genomic DNA was extracted from individual worms (10/group) and quantification of the Wolbachia surface protein (wBm-wsp) gene copy numbers performed by quantitative PCR.
Treatment dosage unit is mg/kg (MK) and duration stated in days (d). Abbreviations: DOX (doxycycline), bid (twice daily), Ms (mesylate). Data in Table 4 are expressed as a reduction in Wolbachia load in comparison to the vehicle control group.

Structure (SMILES)	% Wolbachia reduction cf median Vehicle ([1]; dose/duration stands in the drawing (not visible))	% Wolbachia reduction cf median Vehicle ([1]; 25 MK bid + 28 d)	% Reduction level normalised to DOX (5 μm) ([2]; 500 nM)	% Wolbachia reduction cf. DMSO ([2]; 500 nM)	% Reduction level normalised to DOX (5 μm) ([2]; 5 μM)	% Wolbachia reduction cf. DMSO ([2]; 5 μM)	% Wolbachia reduction cf median Vehicle [3]
C[C@H]1COCCN1c1nc(NCc2cccnc2C(F)(F)F)c2cccnc2n1 [drawing 702]	96.2%						
C[C@H]1c2cccc(O)c2C(=O)C2=C(O)[C@]3(O)C(=O)C(C(N)=O)=C(O)[C@@H](N(C)C)[C@@H]3[C@@H](O)[C@@H]21 [DOX, doxycycline, reference compound]		98.7%	92.9%	80.0%	100.0%	89.6%	99.05%
